Source: US20080300298A1, “Honokiol Derivates For the Treatment of Proliferative Disorders” (priority 2005, published 2008)

Key:
KBM-5 cells = test: Annexin V assay; format: cell-based, human; conditions: KBM-5, honokiol 12 h then 1 nM TNF 16 h
Text: (D) depicts that honokiol enhances TNF-induced cell death.
Annexin V assay. One of the early indicators of apoptosis is the rapid translocation and accumulation of the membrane phospholipid phosphatidylserine from the cell's cytoplasmic interface to the extracellular surface. This loss of membrane asymmetry can be detected using the binding properties of annexin V. Annexin V antibody conjugated with the fluorescent dye FITC was used to detect apoptosis. Briefly, 1×10^6 cells were pretreated with […] honokiol for 12 h, treated with 1 nM TNF for 16 h, and then subjected to annexin V staining. Cells were washed, stained with FITC-conjugated anti-annexin V antibody, and then analyzed with a flow cytometer (FACSCalibur; BD Biosciences).
By using caspase-activated PARP cleavage, it was shown that the enhanced cytotoxicity was due to apoptosis. TNF-induced PARP cleavage was enhanced in the honokiol-treated cells (FIG. 26C).

H1299 cells = test: Invasion assay (Matrigel); format: cell-based, human
Procedure: (A) RAW 264.7 cells (1×10^4) were plated overnight, pretreated with 5 mM honokiol for 12 h, and then treated with 5 nM RANKL. At 4 and 5 days later, cells were stained for TRAP and evaluated for osteoclastogenesis. Photographs were taken after 5 days of incubation with RANKL. (B) The numbers of TRAP-positive multinucleated osteoclasts (>3 nuclei) per well were counted. (C) H1299 cells (2.5×10^4) were seeded into the upper wells of a Matrigel invasion chamber overnight in the absence of serum, pretreated with […] honokiol for 12 h, treated with 1 nM TNF for 24 h in the presence of 1% serum, and then subjected to invasion assay. The value for no honokiol and no TNF was set to 1.0.
Invasion assay. The membrane invasion culture system was used to assess cell invasion because invasion through the extracellular matrix is a crucial step in tumor metastasis. […] The cells that invaded through the Matrigel (i.e., those that migrated to the lower chamber during incubation) were stained with […] calcein-AM (Molecular Probes) in PBS for 30 min at 37° C. and scanned for fluorescence with a Victor 3 multi-plate reader (Perkin Elmer Life and Analytical Sciences, Boston, Mass.); fluorescent cells were counted. […]

[1] = tested on: cyclin D1, p27Kip1, p21Cip1/WAF1, EGFR, AKT, ERK2 in MDA-MB-231 cells; test: Western blot of cell cycle and growth signaling proteins; format: cell-based; conditions: MDA-MB-231, 20, 40 and 60 μM, 24 hours
Procedure: Western blot analysis: Cells were harvested and lysed for total protein extraction in a buffer containing 50 mM Tris-Cl pH 7.4, 150 mM NaCl and 2% NP-40 together with a protease inhibitor cocktail (Comp). Approximately 50-150 μg of protein extract was loaded on a 4-15% polyacrylamide gels (Bio-Rad, Hercules, Calif.), separated electrophoretically and blotted from the gel onto PVDF membrane. The membranes were then blocked with a blocking buffer (5% non-fat dry milk in 1×TBST, i.e. 20 mM Tris-HCl, pH 7.6 containing 0.8% NaCl and 0.1% Tween-20) at room temperature for 1 h. The membranes were incubated with the primary antibodies in blocking buffer, followed by incubation with HRP-labeled secondary antibodies. Immunoactivity was detected with horseradish peroxidase-conjugated secondary antibody and visualized by Enhanced Chemiluminescence (Pierce, Rockford, Ill.). Quantification of the results was performed using AlphaImager 2000 (Alpha Innotech, San Leandro, Calif.).
HNK slows cell cycle in breast cancer cell lines. The effects of HNK (10 μM or 30 μM HNK for 24 hours) on cell cycle were evaluated in MCF-7 and MDA-MB-231 cells. These doses of HNK are less than the LC50 for both cell lines. […] Expression of proteins involved in G1 cell-cycle regulation (massgue) was examined in MDA-MB-231 cells using Western analysis.
HNK inhibits growth signaling pathways. […]

[2] = tested on: SHSY5Y and SHEP neuroblastoma cells; test: cancer cell viability, TSA in combination with honokiol; format: cell-based; conditions: 0-1 uM TSA alone or in combination with honokiol
Text: In FIG. 43, the effects on cancer cell viability after treatment with trichostatin A (TSA), a histone deacetylase inhibitor, in combination with honokiol were examined.

C=CCc1ccc(O)c(-c2ccc(O)c(CC=C)c2)c1 [HNK, Honokiol]
TNF-induced early apoptosis (annexin V staining) (KBM-5 cells): quite effective in enhancing the effects of TNF
TNF-induced tumor cell invasion (H1299 cells; H1299, 10 mM (printed) honokiol 12 h, 1 nM TNF 24 h): suppressed this activity
invasion activity of honokiol alone (H1299 cells; H1299, no TNF): had no invasion activity
expression of G1 cell-cycle regulation proteins [1]: reduced the levels of cyclin D1, and upregulated expression of the cyclin-dependent kinase inhibitors, p27Kip1 and p21Cip1/WAF1
percent of viable cells, combination with TSA compared with TSA alone [2]: significant decrease in the percent of viable cells
